Test results reported in PubChem BioAssay AID256 (DTP/NCI, 2004).
Values joined by “and” are separate entries in the source; they are usually repeats but may differ in a detail not shown here. Equal entries are not always repeated. Toxic doses and inconclusive results are not listed. Rule for the calls: active = survival T/C of 150% or more; inactive = T/C below 125% in these data.

Test system: CD2F1 mice, L1210 leukemia ip, survival T/C
Assay: NCI In Vivo Anticancer Drug Screen. Data for tumor model L1210 Leukemia (intraperitoneal) in CD2F1 (CDF1) mice
Details: higher = longer survival
In short: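 Each value reflects a quotient of treated over vehicle control outcomes in mice with a transplanted tumor.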

[1] = endpoint: mean survival time, dose: 100.0 mg/kg/injection, schedule: Q01DX009 (ip), vehicle: saline with Tween-80
[2] = endpoint: mean survival time, dose: 200.0 mg/kg/injection, schedule: Q01DX009 (ip), vehicle: saline with Tween-80
[3] = endpoint: mean survival time, dose: 100.0 mg/kg/injection, schedule: Q01DX001 (ip), vehicle: saline with Tween-80
[4] = endpoint: mean survival time, dose: 200.0 mg/kg/injection, schedule: Q01DX001 (ip), vehicle: saline with Tween-80
[5] = endpoint: mean survival time, dose: 400.0 mg/kg/injection, schedule: Q01DX001 (ip), vehicle: saline with Tween-80
[6] = endpoint: mean survival time, dose: 75.0 mg/kg/injection, schedule: Q01DX001 (ip), vehicle: saline
[7] = endpoint: mean survival time, dose: 150.0 mg/kg/injection, schedule: Q01DX001 (ip), vehicle: saline
[8] = endpoint: mean survival time, dose: 50.0 mg/kg/injection, schedule: Q01DX009 (ip), vehicle: saline with Tween-80
[9] = endpoint: mean survival time, dose: 12.5 mg/kg/injection, schedule: Q01DX009 (ip), vehicle: saline with Tween-80
[10] = endpoint: mean survival time, dose: 25.0 mg/kg/injection, schedule: Q01DX009 (ip), vehicle: saline with Tween-80
[11] = endpoint: mean survival time, dose: 25.0 mg/kg/injection, schedule: Q04DX003 (ip), vehicle: saline with Tween-80
[12] = endpoint: mean survival time, dose: 100.0 mg/kg/injection, schedule: Q04DX003 (ip), vehicle: saline with Tween-80
[13] = endpoint: mean survival time, dose: 200.0 mg/kg/injection, schedule: Q04DX003 (ip), vehicle: saline with Tween-80
[14] = endpoint: mean survival time, dose: 400.0 mg/kg/injection, schedule: Q04DX003 (ip), vehicle: saline with Tween-80
[15] = endpoint: median survival time, dose: 25.0 mg/kg/injection, schedule: Q01DX009 (ip), vehicle: saline with Tween-80
[16] = endpoint: median survival time, dose: 50.0 mg/kg/injection, schedule: Q01DX009 (ip), vehicle: saline with Tween-80
[17] = endpoint: median survival time, dose: 100.0 mg/kg/injection, schedule: Q01DX009 (ip), vehicle: saline with Tween-80
[18] = endpoint: median survival time, dose: 200.0 mg/kg/injection, schedule: Q01DX009 (ip), vehicle: saline with Tween-80

Measured: T/C

O=c1cc(C(Cl)C2OC(CO)C(O)C2O)nc[nH]1 (stereo not drawn)
inactive: endpoint: median survival time, dose: 18.13 mg/kg/injection, schedule: Q01DX005 (ip), vehicle: saline 100 % of control | endpoint: median survival time, dose: 36.25 mg/kg/injection, schedule: Q01DX005 (ip), vehicle: saline 98 % of control | endpoint: median survival time, dose: 72.5 mg/kg/injection, schedule: Q01DX005 (ip), vehicle: saline 101 % of control | endpoint: median survival time, dose: 145.0 mg/kg/injection, schedule: Q01DX005 (ip), vehicle: saline 103 % of control

COC(=O)c1cc(Cl)cc(C(=O)OC)c1
inactive: [1] 95 % of control | [2] 88 % of control

COc1cc(-c2ccc(N)c(OC)c2)ccc1N
inactive: [3] 100 % of control | endpoint: mean survival time, dose: 100.0 mg/kg/injection, schedule: Q01DX009 (ip), vehicle: saline 96 % of control and 100 % of control | endpoint: mean survival time, dose: 100.0 mg/kg/injection, schedule: Q04DX002 (ip), vehicle: saline with Tween-80 102 % of control | endpoint: mean survival time, dose: 100.0 mg/kg/injection, schedule: Q04DX003 (ip), vehicle: saline 97 % of control | [4] 96 % of control | endpoint: mean survival time, dose: 200.0 mg/kg/injection, schedule: Q01DX009 (ip), vehicle: saline 100 % of control and 102 % of control | endpoint: mean survival time, dose: 200.0 mg/kg/injection, schedule: Q04DX002 (ip), vehicle: saline with Tween-80 100 % of control | endpoint: mean survival time, dose: 200.0 mg/kg/injection, schedule: Q04DX003 (ip), vehicle: saline 94 % of control | [5] 103 % of control | endpoint: mean survival time, dose: 400.0 mg/kg/injection, schedule: Q04DX002 (ip), vehicle: saline with Tween-80 100 % of control | endpoint: mean survival time, dose: 400.0 mg/kg/injection, schedule: Q04DX003 (ip), vehicle: saline 103 % of control

COc1c2c(cc3c1C(O)N(C)CC3)OCO2 (stereo not drawn)
inactive: [6] 100 % of control | [7] 110 % of control

COC(=O)/C(C#N)=C\c1ccccc1
inactive: [8] 95 % of control | [1] 95 % of control | [2] 92 % of control

CC1CC=C(/C=N/Nc2ccc([N+](=O)[O-])cc2[N+](=O)[O-])C(C)O1 (stereo not drawn)
inactive: [3] 107 % of control | [4] 101 % of control | [5] 98 % of control

Clc1ccc2nnnn2n1
inactive: [9] 105 % of control | [10] 113 % of control and 114 % of control | [11] 96 % of control | endpoint: mean survival time, dose: 31.75 mg/kg/injection, schedule: Q04DX003 (ip), vehicle: saline with Tween-80 106 % of control | [8] 100 % of control and 110 % of control | endpoint: mean survival time, dose: 50.0 mg/kg/injection, schedule: Q04DX003 (ip), vehicle: saline with Tween-80 100 % of control | endpoint: mean survival time, dose: 62.5 mg/kg/injection, schedule: Q04DX003 (ip), vehicle: saline with Tween-80 103 % of control | [1] 114 % of control and 122 % of control | [12] 107 % of control | endpoint: mean survival time, dose: 125.0 mg/kg/injection, schedule: Q04DX003 (ip), vehicle: saline with Tween-80 103 % of control | [2] 100 % of control | [13] 105 % of control | endpoint: mean survival time, dose: 250.0 mg/kg/injection, schedule: Q04DX003 (ip), vehicle: saline with Tween-80 105 % of control | [14] 108 % of control | [15] 102 % of control and 103 % of control | endpoint: median survival time, dose: 25.0 mg/kg/injection, schedule: Q04DX003 (ip), vehicle: saline with Tween-80 114 % of control | [16] 113 % of control and 108 % of control | endpoint: median survival time, dose: 50.0 mg/kg/injection, schedule: Q04DX003 (ip), vehicle: saline with Tween-80 112 % of control | [17] 118 % of control | endpoint: median survival time, dose: 100.0 mg/kg/injection, schedule: Q04DX003 (ip), vehicle: saline with Tween-80 113 % of control | [18] 117 % of control and 108 % of control | endpoint: median survival time, dose: 200.0 mg/kg/injection, schedule: Q04DX003 (ip), vehicle: saline with Tween-80 110 % of control | endpoint: median survival time, dose: 400.0 mg/kg/injection, schedule: Q04DX003 (ip), vehicle: saline with Tween-80 118 % of control

O=[N+]([O-])c1cccc(N=Nn2cccc2)c1
inactive: [10] 86 % of control | [8] 106 % of control | [3] 98 % of control | [1] 102 % of control

CCN(CC)C(C)C(=O)Nc1c(C)cccc1Cl (stereo not drawn)
inactive: endpoint: mean survival time, dose: 25.0 mg/kg/injection, schedule: Q01DX009 (ip), vehicle: saline 92 % of control | endpoint: mean survival time, dose: 100.0 mg/kg/injection, schedule: Q01DX001 (ip), vehicle: saline 109 % of control

CC(=O)NC1=CC(OC(C)=O)C(COC(C)=O)OC1n1cnc2c1c(=O)n(C)c(=O)n2C (stereo not drawn)
inactive: endpoint: mean survival time, dose: 12.5 mg/kg/injection, schedule: Q01DX005 (ip), vehicle: distilled water + Tween-80 93 % of control | endpoint: mean survival time, dose: 25.0 mg/kg/injection, schedule: Q01DX005 (ip), vehicle: distilled water + Tween-80 88 % of control | endpoint: mean survival time, dose: 50.0 mg/kg/injection, schedule: Q01DX005 (ip), vehicle: distilled water + Tween-80 88 % of control | endpoint: mean survival time, dose: 200.0 mg/kg/injection, schedule: Q01DX005 (ip), vehicle: distilled water + Tween-80 88 % of control

CCOC(=O)c1cc([N+](=O)[O-])c(Sc2ncnc3nc[nH]c23)c([N+](=O)[O-])c1
inactive: endpoint: mean survival time, dose: 0.63 mg/kg/injection, schedule: Q01DX005 (ip), vehicle: other 104 % of control | endpoint: mean survival time, dose: 1.25 mg/kg/injection, schedule: Q01DX005 (ip), vehicle: other 109 % of control | endpoint: mean survival time, dose: 2.5 mg/kg/injection, schedule: Q01DX005 (ip), vehicle: other 101 % of control | endpoint: mean survival time, dose: 5.0 mg/kg/injection, schedule: Q01DX005 (ip), vehicle: other 114 % of control | endpoint: mean survival time, dose: 10.0 mg/kg/injection, schedule: Q01DX005 (ip), vehicle: other 114 % of control | endpoint: mean survival time, dose: 20.0 mg/kg/injection, schedule: Q01DX005 (ip), vehicle: other 113 % of control | endpoint: mean survival time, dose: 40.0 mg/kg/injection, schedule: Q01DX005 (ip), vehicle: other 120 % of control | endpoint: mean survival time, dose: 80.0 mg/kg/injection, schedule: Q01DX005 (ip), vehicle: other 117 % of control

BrC[P+](CBr)(CBr)CBr
inactive: [15] 98 % of control | [16] 102 % of control | [17] 102 % of control | [18] 109 % of control | endpoint: median survival time, dose: 400.0 mg/kg/injection, schedule: Q01DX009 (ip), vehicle: saline with Tween-80 96 % of control

CC1=CCC2C(=O)NC(=O)C2C1 (stereo not drawn)
inactive: [8] 96 % of control | [1] 104 % of control | [2] 104 % of control

CC(=O)NCc1ccc2c(c1)OCO2
inactive: [3] 98 % of control | [4] 111 % of control | [5] 106 % of control

COC(=O)c1ccc(N=NN(C)C)cc1
inactive: endpoint: mean survival time, dose: 23.0 mg/kg/injection, schedule: Q01DX009 (ip), vehicle: Klucel (hydroxypropylcellulose) (HPC) 108 % of control | endpoint: mean survival time, dose: 39.0 mg/kg/injection, schedule: Q01DX009 (ip), vehicle: Klucel (hydroxypropylcellulose) (HPC) 108 % of control | endpoint: mean survival time, dose: 65.0 mg/kg/injection, schedule: Q01DX009 (ip), vehicle: Klucel (hydroxypropylcellulose) (HPC) 116 % of control

CCCCCCCC/C=C\CCCCCCCC(=O)NCCN1CCCCC1
inactive: [6] 100 % of control | [7] 96 % of control | endpoint: mean survival time, dose: 300.0 mg/kg/injection, schedule: Q01DX001 (ip), vehicle: saline 96 % of control

NS(=O)(=O)O
inactive: endpoint: mean survival time, dose: 12.5 mg/kg/injection, schedule: Q04DX003 (ip), vehicle: saline 98 % of control | endpoint: mean survival time, dose: 25.0 mg/kg/injection, schedule: Q04DX003 (ip), vehicle: saline 110 % of control | endpoint: mean survival time, dose: 50.0 mg/kg/injection, schedule: Q04DX003 (ip), vehicle: saline 102 % of control

CCC12NC(=O)NC1(C)NC(=O)N2 (stereo not drawn)
inactive: endpoint: mean survival time, dose: 6.25 mg/kg/injection, schedule: Q01DX009 (ip), vehicle: saline with Tween-80 95 % of control | endpoint: mean survival time, dose: 6.25 mg/kg/injection, schedule: Q04DX003 (ip), vehicle: saline with Tween-80 102 % of control | [9] 95 % of control | endpoint: mean survival time, dose: 12.5 mg/kg/injection, schedule: Q04DX003 (ip), vehicle: saline with Tween-80 106 % of control | [10] 93 % of control | [11] 110 % of control

CCOC(=O)/C(C#N)=C1/C=Cc2ccccc2N1
inactive: [1] 102 % of control | [12] 109 % of control | [2] 96 % of control | [13] 97 % of control | endpoint: mean survival time, dose: 400.0 mg/kg/injection, schedule: Q01DX009 (ip), vehicle: saline with Tween-80 96 % of control | [14] 97 % of control
